Here are results for 38 compounds from EP3725763A1, “MYOCARDIAL REGENERATION PROMOTING COMPOUNDS, PREPARATION METHOD THEREOF, PHARMACEUTICAL COMPOSITION, AND THEIR USE” (priority 2019, dated 2020).

The series is described as follows: MTT assay for cell viability testing. It is filed as cell-based, rats. The note with it: rat; H9C2 cells, 48 hours treatment at the concentrations of Table 3 (0.4 to 25 µg/ml); DMSO group = 100%; Figure 1. As to the method:
1.1: cell culture of H9C2 cell line
H9C2 cell line is a cardiac myoblast derived from the rats and is purchased from Food Industry Research and Development Institute, Taiwan. The culture medium is 90% (v/v) Dulbecco's modified Eagle's medium with 4 mM L-glutamine (Gibco™, Cat.12800017) adjusted to contain 4.5g/L glucose and 1.5g/L sodium bicarbonate (Sigma, Cat.S5761) and 10% (v/v) fetal bovine serum (Gibco™, Cat.10437028). Incubate at 37°C in a 5% (v/v) CO2 in air atmosphere.
1.2: MTT assay for cell viability testing
In order to find out the feasible concentration of compounds without cytotoxicity, cells was cultured to 90% confluency and cells were seeded in a 24-well plate at a concentration of 1.5*10^4 cell/well. […] After washing with PBS buffer (phosphate buffered saline), 0.5 mg/ ml of MTT (Thiazolyl Blue Tetrazolium Bromide; Sigma, Cat.M2128) was added and incubate the 24-well plate at 37°C for 4 hours. […] Then the supernatant was removed and 200 µL DMSO was added to dissolve the crystal. Mix each sample again using a pipette and read absorbance at 570 nm (the values are averages of triplicate). The value of the DMSO group is 100% to represent that the cell viability is 100%.

Structures are written as SMILES.

As to `O=C(O)/C=C/c1ccc(OC(=O)CCCC(=O)O)cc1` [Compound 1], the viability at 48 h lay within 80 to 120%.
The same measure for `O=C(O)/C=C/c1ccc(OC(=O)CCCC(=O)O)c(O)c1` [Compound 2]: 80 to 120%; for `O=C(O)/C=C/c1ccc(OC(=O)CCCC(=O)O)c(OC(=O)CCCC(=O)O)c1` [Compound 3]: 80 to 120%; for `O=C(O)/C=C/c1ccc(OC(=O)CCCCC(=O)O)cc1` [Compound 4]: 80 to 120%.
For the compound `COC(=O)CCCCC(=O)Oc1ccc(/C=C/C(=O)O)cc1` [Compound 5], the viability at 48 h lay in the range of 80 to 120%.
The same measure for `COC(=O)CCCCC(=O)Oc1ccc(/C=C/C(=O)O)cc1OC(=O)CCCCC(=O)OC` [Compound 6]: 80 to 120%; for `CC(=O)Oc1ccccc1C(=O)Oc1ccc(/C=C/C(=O)O)cc1` [Compound 7]: 80 to 120%; for `CC(=O)Oc1ccccc1C(=O)Oc1ccc(/C=C/C(=O)O)cc1O` [Compound 8]: 80 to 120%.
With `O=C(O)/C=C/c1ccc(OC(=O)Cc2cccc(Cl)c2)cc1` [Compound 9], the viability at 48 h fell in the range of 80 to 120%.
Regarding `O=C(O)/C=C/c1ccc(OC(=O)Cc2cccc(Cl)c2)c(OC(=O)Cc2cccc(Cl)c2)c1` [Compound 10], the viability at 48 h is 80 to 120%.
The same measure for `COC(=O)/C=C/c1ccc(OC(=O)Cc2cccc(Cl)c2)c(OC(=O)Cc2cccc(Cl)c2)c1` [Compound 11]: 80 to 120%.
Turning to `CC(C)(C)OC(=O)NCCCC(=O)Oc1ccc(/C=C/C(=O)O)cc1OC(=O)CCCNC(=O)OC(C)(C)C` [Compound 12], the viability at 48 h was in the range of 80 to 120%.
The same measure for `O=C(O)/C=C/c1ccc(NC(=O)CCCC(=O)O)cc1` [Compound 13]: 80 to 120%.
The same measure for `COC(=O)/C=C/C(=O)Nc1ccc(/C=C/C(=O)O)cc1` [Compound 14]: 80 to 120%.
With `CC(=O)Oc1ccccc1C(=O)N(C(=O)c1ccccc1OC(C)=O)c1ccc(/C=C/C(=O)O)cc1` [Compound 15], the viability at 48 h was 80 to 120%.
Next, `COC(=O)/C=C/c1ccccc1` [Compound 17]: 80 to 120%; `COC(=O)/C=C/c1ccc(O)c(O)c1` [Compound 18]: 80 to 120%.
As for `O=C(/C=C/c1ccccc1)OCc1ccc(O)cc1` [Compound 21], the viability at 48 h was in the range of 80 to 120%.
Next, `O=C(O)/C=C/c1ccc(O)cc1O` [Compound 24]: 80 to 120%; `CC(=O)C(=O)Oc1ccc(/C=C/C(=O)O)cc1` [Compound 27]: 80 to 120%.
For `CC(=O)Oc1ccc(/C=C/C(=O)O)cc1` [Compound 28], the viability at 48 h is 80 to 120%.
The same measure for `COC(=O)/C=C/c1ccc(OC(=O)c2ccccc2OC(C)=O)c(OC(=O)c2ccccc2OC(C)=O)c1` [Compound 29]: 80 to 120%; for `O=C(O)/C=C/c1ccc(OC(=O)c2cccnc2)cc1` [Compound 30]: 80 to 120%; for `Nc1ccc(/C=C/C(=O)O)cc1` [Compound 31]: 80 to 120%.
The same measure for `O=C(O)/C=C/C(=O)Nc1ccc(/C=C/C(=O)O)cc1` [Compound 32]: 80 to 120%; for `O=C(O)/C=C/c1ccc(NC(=O)c2ccccc2O)cc1` [Compound 33]: 80 to 120%.
Next, `O=C(/C=C/c1ccc2c(c1)OCO2)Nc1ccc(O)cc1` [Compound 34]: 80 to 120%; `Cc1ccc(/C=C/C(=O)c2cccc(NC(=O)/C=C/c3ccc4c(c3)OCO4)c2)s1` [Compound 35]: 80 to 120%; `O=C(O)/C=C/c1ccncc1` [Compound 36]: 80 to 120%.
Regarding `O=C(O)/C=C/c1cccnc1` [Compound 37], the viability at 48 h is 80 to 120%.
Next, `O=C(O)/C=C/c1cccs1` [Compound 38]: 80 to 120%; `O=C(O)/C=C/c1ccsc1` [Compound 39]: 80 to 120%; `C=CCOc1ccc(/C=C/C(=O)c2sccc2N)c(OCC=C)c1` [Compound 40]: 80 to 120%.
The same measure for `O=C(/C=C/c1ccsc1)c1ccc(O)cc1` [Compound 41]: 80 to 120%; for `O=C(/C=C/c1ccc2c(c1)OCO2)n1cccc1` [Compound 42]: 80 to 120%; for `O=C(/C=C/c1ccccn1)c1ccccn1` [Compound 43]: 80 to 120%.
The same measure for `Cc1ccc(/C=C/C(=O)c2sc(N)nc2C)s1` [Compound 44]: 80 to 120%.
Consider `O=C(/C=C/c1ccc(O)c(O)c1)O[C@H](Cc1ccc(O)c(O)c1)C(=O)O` [Compound 46], for which the viability at 48 h was 80 to 120%.
